One series deals with Z-138 cells. In words: Inhibitory activity on tumor cell proliferation (Cell-Titer Glo, 8 days). It is filed as cell-based. The following applies: Homo sapiens, 192 h, read-out: Inhibition of cell proliferation Z-138 IC50. The method, then: Materials and cells: Z-138 cells were purchased from ATCC (USA); IMDM medium and penicillin-streptomycin were purchased from Sigma PLC. (USA); horse serum was purchased from Hyclone (USA); 96-well plate was purchased from Corning (USA); and Cell-Titer Glo reagent was purchased from Promega (USA).
(§1) Cell culture: Z-138 cells were cultured in an IMDM culture solution containing 10% Horse serum+1% penicillin−streptomycin at 37° C., 5% CO2. Cells in logarithmic growth phase were suitable for the experiment.
Detection of cell proliferation activity: The inhibitory activities of the compounds on the proliferation of Z-138 cells were detected by using the Cell-Titer Glo reagent. The concentrations of the cells were adjusted, and 180 μL was inoculated in each well of the 96-well plate (500/well) and equilibrated for 10-15 minutes at 37° C., 5% CO2. 20 μL of a culture solution containing the compounds was added into each well with the final concentration reaching 0-300 nM (initial concentration: 300 nM, 3-fold dilution, for 10 points), and the DMSO content was 0.1%. The cell plate was placed at 37° C., 5% CO2 and incubated for 8 days. Culture solution was replaced at day 4: 100 μL of the supernatant was slowly aspirated and 100 μL of a fresh culture solution containing the compounds was provided as a supplement while the concentrations of the compounds were held constant. The cell viability was detected by using the Cell-Titer Glo reagent.

A further series relates to SDMA in Z-138 cells. The experiment in a line: Inhibitory activity on SDMA in cells (immunofluorescent assay). Format: cell-based. The note with it: Homo sapiens, 48 h, 2 days, read-out: Inhibition of SDMA in cells IC50.
Excerpt: Materials and cells: Z-138 cells were purchased from ATCC (USA); IMDM medium and penicillin-streptomycin were purchased from Sigma PLC. (USA); horse serum was purchased from Hyclone (USA); Hoechst antibodies were purchased from Invitrogen (USA); Alexa Fluor 488 goat anti-rabbit IgG antibodies were purchased from Invitrogen (USA); Anti-dimethyl-Arginine symmetric (SYM11) antibodies were purchased from Merck & Co., Inc. (USA); DPBS was purchased from Gibco (USA); Nonfat Dry milk was purchased from Cell Signaling Technology (USA); paraformaldehyde was purchased from Beijing Solarbio Science & Technology Co., Ltd.; 384-well plate and Echo 550 Liquid Handler were purchased from Labcyte Inc. (USA); and an ImageXpress Nano was purchased from Molecular Devices (USA).
as §1
Immunofluorescent assay: The effects of the compounds on SDMA in Z-138 cells were detected by using immunofluorescence. The cells were adjusted to the concentration of 1*10^5/mL and 40 μL was inoculated in each well of the 384-well plate (4000/well) and equilibrated for 10-15 minutes at 37° C., 5% CO2. The compound was added into a 384-well plate by using the Echo 550 Liquid Handler with the final concentration of 0-300 nM (initial concentration: 300 nM, 3-fold dilution, for 10 points), and the DMSO content was 0.1%. The cell plate was placed at 37° C., 5% CO2 and incubated for 2 days. 40 μL of 8% paraformaldehyde was added into each well and incubated at room temperature for 30 minutes. The supernatant was discarded, the plate was washed with DPBS, and 40 μL of 0.5% PBST (phosphate buffer with Tween) was added into each well and incubated at room temperature for 60 minutes. The supernatant was discarded, the plate was washed with 0.05% PBST, and 40 μL of a blocking solution (1% Nonfat milk in 0.05% PBST) was added into each well and incubated at room temperature for 60 minutes. The supernatant was discarded, and 20 μL of the primary antibody (SYM11, diluted with a blocking solution at 1:500) was added into each well and maintained at 4° C. overnight. The supernatant was discarded, the plate was washed with 0.05% PBST, 20 μL of the secondary antibody (Alexa Fluor 488 goat anti-rabbit and Hoechst, diluted with a blocking solution at 1:1000 and 1:5000, respectively) was added to each well and incubated at room temperature for 60 minutes. The supernatant was discarded, the plate was washed with 0.05% PBST, and the fluorescent intensity was detected with ImageXpress Nano.

The nature of series [1]: Hepatocellular metabolic stability test, mouse hepatocytes.
Excerpt: (§2) Experimental materials: Human hepatocytes were purchased from Biopredic; mouse hepatocytes were purchased from BioIVT; acetonitrile and methanol were purchased from Merck & Co., Inc.; AOPI dyes were purchased from Nexcelom; dexamethasone was purchased from NIFDC; DMSO was purchased from Beijing Solarbio Science & Technology Co., Ltd.; DPBS (10×), GlutaMAX™-1 (100×) and recombinant human insulin were purchased form Gibco by Life Technologies; fetal bovine serum was purchased from Corning; formic acid was purchased from DIKMAPURE; Isotonic Percoll was purchased from GE Healthcare; alprazolam was purchased from Supelco; caffeine was purchased from ChromaDex.inc; and HEPES, tolbutamide and Williams' Medium E were purchased from Sigma.
(§3) The powder of a test substance was formulated with DMSO into a stock solution with a high concentration, which was diluted to a working solution of 100 μM with acetonitrile prior to use. The final concentration of the test substance was 1 μM.
(§4) 49.5 mL of Williams'E Medium and 0.5 mL of GlutaMAX were mixed as an incubation media. Hepatocyte thawing media and incubation media were placed in a 37° C. water-bath and pre-heated for at least 15 minutes prior to use. A tube of hepatocytes stored at an ultra-low temperature was taken and the hepatocytes were ensured to be at a frozen state at a low temperature prior to thawing. The hepatocytes were rapidly placed in a 37° C. water-bath and gently shaken until all the ice crystals were dispersed, and then after 70% ethanol was sprayed, the hepatocytes were transferred to a biosafety cabinet. The content of the tube was poured into a centrifugal tube containing 50 mL of thawing media and centrifuged at 100 g for 10 minutes. After centrifugation, the thawing media was aspirated, and a sufficient amount of incubation media was added to obtain a cell suspension with a cell density of about 1.5×10^6 cells/mL. The hepatocytes were counted, and the viable cell density was determined using Cellometer Vision, and the survival rate of the hepatocytes must be higher than 75%. The hepatocyte suspension was diluted by using the incubation media to a viable cell density of 0.5×10^6 viable cells/mL.
(§5) 247.5 μL of viable cell (human hepatocytes or mouse hepatocytes) suspension or media were transferred into a 96-well deep-well plate, and the deep-well plate was placed in a vortex incubator and pre-heated for 10 minutes. Incubation of all the samples was performed in parallel duplicate. Test substance (2.5 μL, 100 μM) was added into each well to start the reaction and the deep-well plate was placed in the vortex incubator again. The samples were incubated, and 25 μL of the suspension was taken at 0, 15, 30, 60, 90 and 120 minutes, respectively. 125 μL of acetonitrile containing internal standard (100 nM alprazolam, 200 nM caffeine, and 100 nM tolbutamide) was added to terminate the reaction. The mixture was vortexed for 10 minutes and centrifuged at 3220 g, 4° C. for 30 minutes. After centrifugation, 100 μL of the supernatant was transferred into the loading plate and 150 μL of pure water was added and mixed uniformly for LC-MS/MS analysis.
(§6) All the data calculation was performed by the Microsoft Excel software. The peak area was detected by extracting the ion chromatogram. The in vitro half-life (t1/2) of the parent drug was detected by performing linear fitting of the natural logarithm of elimination percent of the parent drug and time.
(§7) The in vitro half-life (t1/2) was calculated by means of the slope:
For the next series, the target named is T1, PRMT5/MEP50 (Homo sapiens, UniProt O14744).
T1 construct: purchased BPS Bioscience Inc. (USA)
T1 sequence (O14744 2-637 limits assumed): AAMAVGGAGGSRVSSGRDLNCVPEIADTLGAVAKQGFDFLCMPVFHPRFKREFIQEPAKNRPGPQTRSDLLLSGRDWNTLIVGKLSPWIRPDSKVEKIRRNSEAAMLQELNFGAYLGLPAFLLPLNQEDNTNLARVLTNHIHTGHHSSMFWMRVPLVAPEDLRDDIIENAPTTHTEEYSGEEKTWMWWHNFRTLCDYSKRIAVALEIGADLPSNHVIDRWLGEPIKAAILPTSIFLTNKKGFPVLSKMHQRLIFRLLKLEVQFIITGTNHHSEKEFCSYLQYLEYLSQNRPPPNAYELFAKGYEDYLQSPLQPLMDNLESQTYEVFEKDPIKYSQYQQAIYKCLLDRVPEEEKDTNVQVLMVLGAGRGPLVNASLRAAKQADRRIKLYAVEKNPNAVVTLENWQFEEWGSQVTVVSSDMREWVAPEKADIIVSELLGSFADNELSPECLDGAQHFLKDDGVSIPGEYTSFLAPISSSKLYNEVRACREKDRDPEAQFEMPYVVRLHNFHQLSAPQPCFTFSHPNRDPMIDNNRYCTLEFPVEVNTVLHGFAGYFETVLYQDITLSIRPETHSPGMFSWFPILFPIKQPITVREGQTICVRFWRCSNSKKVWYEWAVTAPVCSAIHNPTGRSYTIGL
T1 sequence (Q9BQA1 2-342 partner limits assumed): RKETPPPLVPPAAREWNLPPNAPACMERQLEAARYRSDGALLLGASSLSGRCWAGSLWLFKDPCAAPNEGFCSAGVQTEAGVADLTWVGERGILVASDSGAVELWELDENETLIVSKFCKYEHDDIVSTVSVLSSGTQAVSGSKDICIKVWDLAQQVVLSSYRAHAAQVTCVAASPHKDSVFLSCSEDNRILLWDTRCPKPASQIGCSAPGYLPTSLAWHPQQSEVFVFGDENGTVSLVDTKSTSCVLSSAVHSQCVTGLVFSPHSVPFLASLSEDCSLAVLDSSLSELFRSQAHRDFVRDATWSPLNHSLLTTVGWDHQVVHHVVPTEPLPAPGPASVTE
The experiment in a line: PRMT5 enzymatic activity inhibition experiment (AlphaScreen). Format: biochemical. From the text:
Materials: PRMT5/MEP50 proteins were purchased from BPS Bioscience Inc. (USA); Histone H4 Peptide substrate was purchased from Sangon Biotech (Shanghai) Co., Ltd.; Anti-Histone H4 (symmetric dimethyl R3) antibody—ChIP Grade was purchased from Abcam PLC. (USA); S-(5′-Adenosyl)-L-methionine chloride dihydrochloride was purchased from Sigma PLC. (USA); 384-well plate, AlphaScreen Streptavidin Donor beads, AlphaScreen Protein A Acceptor beads, and Envision 2104 multi-label Reader were purchased from Perkin-Elmer Instruments (USA) Corporation; and Echo 550 Liquid Handler was purchased from Labcyte Inc. (USA).
Enzymatic activity assay: The compounds were added into a 384-well plate by using the Echo 550 Liquid Handler with the final concentration of 0-1000 nM (initial concentration: 1000 nM, 3-fold dilution, for 10 points), and the DMSO content was 0.5%. 10 μL of a 2× PRMT5/MEP50 solution was added into each well and incubated at room temperature for 30 minutes. 10 μL of 2× PRMT5/MEP50 substrate solution was added to each well to start the reaction and incubated at room temperature for 60 minutes. A 6× detection reagent containing AlphaScreen Protein A Acceptor beads and Anti-Histone H4 (symmetric dimethyl R3) antibodies was prepared and 5 μL was added to each well. The plate was incubated at room temperature for 60 minutes. A 6× detection reagent containing AlphaScreen Streptavidin Donor beads was prepared and 5 μL was added to each well. The plate was incubated at room temperature for 60 minutes. The signal values were detected by using the Envision.

Series [2] in a line: Hepatocellular metabolic stability test, human hepatocytes.
Excerpt: as §2, §3, §4, §5, §6, §7
A short description of series [3]: in vitro. The following applies: mouse, hepatocytes.
Excerpt: as §2, §3, §4, §5, §6, §7
A short description of series [4]: in vitro. The following applies: human, hepatocytes.
Excerpt: as §2, §3, §4, §5, §6, §7
Setting [5] is: PRMT5/MEP50, Histone H4 peptide substrate, read-out: Inhibition of enzymatic activity IC50.

Our source for the IC50 and half-life values is patent publication US20230250108A1, “TETRAHYDROISOQUINOLINE COMPOUNDS AND USE THEREOF” (JIANGSU SIMCERE PHARMACEUTICAL CO., LTD., priority 2020, published 2023).

Counter-ions that a name gives are not always drawn. Like-named read-outs stand apart in the source and are kept apart here.

For `CCN1CCN(C[C@@H](O)[C@@H]2Cc3ccccc3CN2)C(=O)c2ccc(C(=O)N3C4CCC3COC4)cc21.Cl` [Compound 001, 8-(3-oxa-8-azabicyclo[3.2.1]octane-8-carbonyl)-1-ethyl-4-((R)-2-hydroxy-2-((S)-1,2,3,4-tetrahydroisoquinolin-3-yl)ethyl)-1,2,3,4-tetrahydro-5H-benzo[e][1,4]diazepin-5-one hydrochloride], the IC50 was 3.47 nM in the series on Z-138 cells, 3.8 nM in the series on SDMA in Z-138 cells and 4.56 nM on PRMT5/MEP50. Moreover, the values for the half-life at 1 μM in series [1] and in series [2] were 122 min and 1470 min, respectively.

With `CCN1CCN(C[C@@H](O)[C@@H]2Cc3ccccc3CN2)C(=O)c2ccc(C(=O)N3CCC4(CC3)CC(C#N)C4)cc21` [Compound 003, 7-(1-ethyl-4-((R)-2-hydroxy-2-((S)-1,2,3,4-tetrahydroisoquinolin-3-yl)ethyl)-5-oxo-2,3,4,5-tetrahydro-1H-benzo[e][1,4]diazepine-8-carbonyl)-7-azaspiro[3.5]nonane-2-carbonitrile], the IC50 in the series on Z-138 cells was found to be 1.21 nM; with SDMA in Z-138 cells it was 0.8 nM; on PRMT5/MEP50 (setting [5]), 2.02 nM. Also, the half-life at 1 μM in “in vitro [3]” is 118 min; in “in vitro [4]”, 5.46 days.

For the compound `CCN1CCN(C[C@@H](O)[C@@H]2Cc3ccccc3CN2)C(=O)c2ccc(C(=O)N3C4CCC3CC(OC)C4)cc21.Cl` (stereo partly drawn) [Compound 004, 1-ethyl-4-((R)-2-hydroxy-2-((S)-1,2,3,4-tetrahydroisoquinolin-3-yl)ethyl)-8-(3-methoxy-8-azabicyclo[3.2.1]octane-8-carbonyl)-1,2,3,4-tetrahydro-5H-benzo[e][1,4]diazepin-5-one hydrochloride], the figures for the IC50 in the series on Z-138 cells, in the series with SDMA in Z-138 cells and on PRMT5/MEP50 were 1.87 nM, 1.4 nM and 4.53 nM, respectively. Moreover, the half-life at 1 μM in series [1] came out at 52.3 min; in series [2], 672 min.

Consider `COC1CC2CCC(C1)N2C(=O)c1ccc2c(c1)N(C)CCN(C[C@@H](O)[C@@H]1Cc3ccccc3CN1)C2=O.Cl` (stereo partly drawn) [Compound 005, 4-((R)-2-hydroxy-2-((S)-1,2,3,4-tetrahydroisoquinolin-3-yl)ethyl)-8-(3-methoxy-8-azabicyclo[3.2.1]octane-8-carbonyl)-1-methyl-1,2,3,4-tetrahydro-5H-benzo[e][1,4]diazepin-5-one hydrochloride], for which the IC50 was determined as 4.27 nM in the series with Z-138 cells, 1.5 nM with SDMA in Z-138 cells and 6.73 nM at PRMT5/MEP50. Besides, the half-life at 1 μM in series [1] turned out to be 77.8 min; in series [2] it was 337 min.

Regarding `CCN1CCN(C[C@@H](O)[C@@H]2Cc3ccccc3CN2)C(=O)c2ccc(C(=O)N3CCC4(CCC(OC)CC4)CC3)cc21` [Compound 006, 1-ethyl-4-((R)-2-hydroxy-2-((S)-1,2,3,4-tetrahydroisoquinolin-3-yl)ethyl)-8-(9-methoxy-3-azaspiro[5.5]undecane-3-carbonyl)-1,2,3,4-tetrahydro-5H-benzo[e][1,4]diazepin-5-one hydrochloride], the IC50 with Z-138 cells was determined as 4.8 nM; in the series with SDMA in Z-138 cells, 1.8 nM; at PRMT5/MEP50 (setting [5]), 3.62 nM.

With `COC1CC2CCC(C1)N2C(=O)c1ccc2c(c1)OCCN(C[C@@H](O)[C@@H]1Cc3ccccc3CN1)C2=O` (stereo partly drawn) [Compound 008, 4-((R)-2-hydroxy-2-((S)-1,2,3,4-tetrahydroisoquinolin-3-yl)ethyl)-8-(3-methoxy-8-azabicyclo[3.2.1]octane-8-carbonyl)-3,4-dihydrobenzo[f][1,4]oxazepin-5(2H)-one], the IC50 in the series with Z-138 cells was 6.04 nM; on PRMT5/MEP50 (setting [5]), 12.2 nM.

As for `COC1CC2(CCN(C(=O)c3ccc4c(c3)OCCN(C[C@@H](O)[C@@H]3Cc5ccccc5CN3)C4=O)CC2)C1` [Compound 009, 4-((R)-2-hydroxy-2-((S)-1,2,3,4-tetrahydroisoquinolin-3-yl)ethyl)-8-(2-methoxy-7-azaspiro[3.5]nonane-7-carbonyl)-3,4-dihydrobenzo[f][1,4]oxazepin-5(2H)-one], the IC50 was found to be 2.97 nM in the series on Z-138 cells, 6.1 nM with SDMA in Z-138 cells and 4.96 nM at PRMT5/MEP50 (setting [5]).

Consider `CCN1CCN(C[C@@H](O)[C@@H]2Cc3ccccc3CN2)C(=O)c2ccc(C(=O)N3CCC4(CC3)CC(O)C4)cc21` [Compound 024, 1-ethyl-4-((R)-2-hydroxy-2-((S)-1,2,3,4-tetrahydroisoquinolin-3-yl)ethyl)-8-(2-hydroxy-7-azaspiro[3.5]nonane-7-carbonyl)-1,2,3,4-tetrahydro-5H-benzo[e][1,4]diazepin-5-one], for which the IC50 in the series on Z-138 cells amounted to 10.6 nM. For the same compound, the half-life at 1 μM in the series “in vitro [3]” was 35.3 min; in the series “in vitro [4]”, 0.536 days.
